Among the data in US20030216378A1, “Azepino[4,5-b]pyrano[3,2-e]indoles” (priority 2000, published 2003) are melting point values, retold here.

With `Cl.O=C(Cn1c2c(c3c4c(ccc31)OCCC4)CCNCC2)Nc1ccccc1`, the melting point is > 250 °C (dec.).

Consider `C1=Cc2c(ccc3[nH]c4c(c23)CCN(Cc2ccccc2)CC4)OC1`, for which the melting point was in the range of 157 to 160 °C.

On to `Cl.c1cc2[nH]c3c(c2c2c1OCCC2)CCNCC3`, for which the melting point was > 283 °C (dec.).

Compound `Cn1c2c(c3c4c(ccc31)OCC=C4)CCN(Cc1ccccc1)CC2` [Example 1, 10-Benzyl-7-methyl-7,8,9,10,11,12-hexahydro-3H-azepino[4,5-]pyrano[3,2-e]indole] had a melting point of 112 to 114 °C.

In the case of `O=C(O)Cn1c2c(c3c4c(ccc31)OCC=C4)CCN(Cc1ccccc1)CC2` [Example 8], the melting point lay within 185 to 187 °C.

The compound `O=C(Cn1c2c(c3c4c(ccc31)OCC=C4)CCN(Cc1ccccc1)CC2)Nc1ccccc1` [Example 9, 2-(10-benzyl-3,8,9,10,11,12-hexahydro-7H-azepino[4.5-b]pyrano[3,2-e]indol-7-yl)-N-phenylacetamide] gave a melting point of 134 to 136 °C.
